According to patent US20110046066A1, “INHIBITORS OF IAP” (GENENTECH, INC., priority 2008, published 2011):
Several values for one entry are separate records, joined by “and”; a condition that tells them apart may be missing. Equal entries are not always repeated.

Legend:
C-IAP1 BIR3 = target: T1, C-IAP1 BIR3 (Homo sapiens, UniProt Q13490); experiment: Fluorescence polarization peptide binding assay, C-IAP1 BIR3; settings: for IC50: 0.2 μM C-IAP1 BIR3, 5 nM AVP-diPhe-FAM probe, one hour incubation; for Ki: determined from the IC50 values (procedure of Keating et al.)
T1 construct: 0.2 μM C-IAP1 BIR3
T1 sequence (Q13490 253-363 limits assumed): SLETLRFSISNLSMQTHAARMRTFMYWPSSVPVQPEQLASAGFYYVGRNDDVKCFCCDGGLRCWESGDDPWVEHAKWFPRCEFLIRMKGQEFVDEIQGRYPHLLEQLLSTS
Protocol: (§1) Polarization experiments were performed on an Analyst HT 96-384 reader (Molecular Devices Corp.) in order to determine dissociation constants (Kd) between IAP protein BIR domains and the fluorescent probe. Samples for fluorescence polarization affinity experiments were prepared by addition of serial dilutions of IAP BIR domains (C-IAP1 BIR3, C-IAP-2 BIR3, ML/X-IAP chimera MLXBIR3SG and X-IAP BIR3) in polarization buffer (50 mM Tris [pH 7.2], 120 mM NaCl, 1% bovine globulins 5 mM DTT and 0.05% octylglucoside) to 5-carboxyflourescein-conjugated AVPdi-Phe-NH2 (AVP-diPhe-FAM) at 5 nM final concentration.
(§2) The reactions were read after an incubation time of 1 hour at room temperature with standard cut-off filters for the fluorescein fluorophore (λex=485 nm; λem=530 nm) in 384-well black plates (Molecular Devices Corp.). Fluorescence polarization values were plotted as a function of the protein concentration, and the effective concentration 50 (EC50) values were obtained by fitting the data to a 4-parameter equation using Kaleidagraph software (Synergy software, Reading, Pa.). The apparent Kd values were determined from the EC50 values. Inhibition Constants (Ki values) for the antagonists were determined by the addition of 0.06 μM MLXBIR3SG, 0.5 μM X-IAP BIR3, 0.2 μM C-IAP1 BIR3 or 0.4 μM C-IAP-2 BIR3 to wells containing 5 nM of the AVP-diPhe-FAM probe as well as 1:3 serial dilutions of antagonist compounds starting at a concentration of 200 μM in the polarization buffer. Samples were read after an incubation time of one hour. Fluorescence polarization values were plotted as a function of the antagonist concentration, and the IC50 values were obtained by fitting the data to a 4-parameter equation using Kaleidagraph software (Synergy software, Reading, Pa.). Ki values for the antagonists were determined from the IC50 values according to the procedure of Keating, S. M., Marsters, J, Beresini, M., Ladner, C., Zioncheck, K., Clark, K., Arellano, F., and Bodary, S. (2000) in Proceedings of SPIE: In Vitro Diagnostic Instrumentation (Cohn, G. E., Ed.) pp 128-137, Bellingham, Wash. […] All values are micromolar.

C-IAP2 BIR3 = target: T2, C-IAP2 BIR3 (Homo sapiens, UniProt Q13489); experiment: Fluorescence polarization peptide binding assay, C-IAP2 BIR3; settings: for IC50: 0.4 μM C-IAP-2 BIR3, 5 nM AVP-diPhe-FAM probe, one hour incubation; for Ki: determined from the IC50 values (procedure of Keating et al.)
T2 construct: 0.4 μM C-IAP-2 BIR3
T2 sequence (Q13489 238-349 limits assumed): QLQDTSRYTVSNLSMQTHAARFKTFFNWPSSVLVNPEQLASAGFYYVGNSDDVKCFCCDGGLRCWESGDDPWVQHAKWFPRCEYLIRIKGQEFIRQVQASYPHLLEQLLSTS
Protocol: as §1, §2

X-IAP BIR3 = target: T3, X-IAP BIR3 (Homo sapiens, UniProt P98170); experiment: Fluorescence polarization peptide binding assay, X-IAP BIR3; settings: for IC50: 0.5 μM X-IAP BIR3, 5 nM AVP-diPhe-FAM probe, one hour incubation; for Ki: determined from the IC50 values (procedure of Keating et al.)
T3 construct: 0.5 μM X-IAP BIR3
T3 sequence (P98170 241-356 limits assumed): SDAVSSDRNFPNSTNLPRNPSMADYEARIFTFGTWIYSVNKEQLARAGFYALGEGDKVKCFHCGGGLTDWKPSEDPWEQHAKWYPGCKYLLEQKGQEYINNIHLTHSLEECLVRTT
Protocol: as §1, §2

[1] = target: T4, ML/X-IAP chimera MLXBIR3SG (Homo sapiens, UniProt Q96CA5, S150G); experiment: Fluorescence polarization peptide binding assay, MLXBIR3SG; settings: for IC50: 0.06 μM MLXBIR3SG, 5 nM AVP-diPhe-FAM probe, one hour incubation; for Ki: determined from the IC50 values (procedure of Keating et al.)
T4 sequence (Q96CA5 with tags, fused parts or gaps S150G): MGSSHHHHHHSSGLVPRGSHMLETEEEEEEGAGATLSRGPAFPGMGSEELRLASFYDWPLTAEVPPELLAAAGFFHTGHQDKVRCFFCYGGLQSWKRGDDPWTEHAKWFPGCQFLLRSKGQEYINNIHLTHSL
Protocol: The following fluorescence polarization experiments used a chimeric BIR domain referred to as MLXBIR3SG in which 11 of 110 residues correspond to those found in XIAP BIR3, while the remainder correspond to ML-IAP BIR. […] The improved caspase-9 inhibition of the chimeric BIR domain MLXBIR3SG has been correlated with increased inhibition of doxorubicin-induced apoptosis when transfected into MCF7 cells.
as §1, §2

Compound | IC50 (C-IAP1 BIR3) | Ki (C-IAP1 BIR3) | IC50 (C-IAP2 BIR3) | Ki (C-IAP2 BIR3) | IC50 (X-IAP BIR3) | Ki (X-IAP BIR3) | IC50 [1] | Ki [1]
CN[C@@H](C)C(=O)N[C@H](C(=O)N[C@H](C(=O)Nc1snnc1-c1ccccc1)C1(C)CCOCC1)C1CCCCC1 [Compound 3] | 245 nM | 38 nM | 272 nM | 59 nM | 11200 nM | 1990 nM | 178 nM | 41 nM
CN[C@@H](C)C(=O)N[C@H](C(=O)N[C@H](c1nc(-c2ccc(F)c3ccccc23)cs1)C(C)(C)SCc1ccc(OC)cc1)C1CCCCC1 [Compound 22] | 2290 nM | 354 nM | 2450 nM | 530 nM | > 200000 nM | > 35000 nM | 8880 nM | 2020 nM
CN[C@@H](C)C(=O)N[C@H](C(=O)N[C@H](C(=O)NCC(c1ccccc1)c1ccccc1)C(C)(C)SCNC(C)=O)C1CCCCC1 [Compound 18] | 2550 nM | 395 nM | 4340 nM | 937 nM | > 200000 nM | > 35000 nM | 2480 nM | 564 nM
CN[C@@H](C)C(=O)N[C@H](C(=O)N[C@H](C(=O)NCC(c1ccccc1)c1ccccc1)C(F)(F)F)C1CCCCC1 [Compound 8] | 3120 nM | 483 nM | 1940 nM | 419 nM | > 200000 nM | > 35000 nM | 899 nM | 205 nM
CN[C@@H](C)C(=O)N[C@H](C(=O)N[C@H](C(=O)Nc1snnc1-c1ccccc1)C(C)(C)SC)C1CCCCC1 [Compound 20, (R)-2-((S)-2-cyclohexyl-2-((S)-2-(methylamino)propanamido)-acetamido)-3-methyl-3-(methylthio)-N-(4-phenyl-1,2,3-thiadiazol-5-yl)butanamide] | 133 nM | 21 nM | 202 nM | 44 nM | 21700 nM | 3870 nM | 249 nM | 57 nM
CN[C@@H](C)C(=O)N[C@H](C(=O)N[C@H](C(=O)Nc1snnc1-c1ccccc1)C(C)(C)OC)C1CCCCC1 [Compound 2] | 192 nM | 30 nM | 256 nM | 55 nM | 11100 nM | 1980 nM | 279 nM | 64 nM
CN[C@@H](C)C(=O)N[C@H](C(=O)N[C@H](C(=O)Nc1sc(-c2cnccn2)nc1-c1ccccc1)C(C)(C)C)c1ccccc1 [Compound 11] | 13500 nM | 2090 nM | 34500 nM | 7440 nM | > 200000 nM | > 35000 nM | ~60000 nM | 13700 nM
CN[C@@H](C)C(=O)N[C@H](C(=O)N[C@H](C(=O)Nc1snnc1-c1ccccc1)C(C)(C)F)C1CCCCC1 [Compound 6] | 131 nM | 20 nM | 222 nM | 48 nM | 8840 nM | 1570 nM | 248 nM | 57 nM
CN[C@@H](C)C(=O)N[C@H](C(=O)N[C@H](C(=O)Nc1snnc1-c1ccccc1)C(C)(C)SCc1ccc(OC)cc1)C1CCCCC1 [Compound 19] | 289 nM | 45 nM | 341 nM | 74 nM | ~100000 nM | 17800 nM | 543 nM | 124 nM
CN[C@@H](C)C(=O)N[C@H](C(=O)N[C@H](C(=O)Nc1cc(C)nn1-c1ccccc1)C(C)(C)SCc1ccc(OC)cc1)C1CCCCC1 [Compound 16] | 738 nM | 114 nM | 1320 nM | 286 nM | > 200000 nM | > 35000 nM | 4540 nM | 1030 nM
CN[C@@H](C)C(=O)N[C@H](C(=O)N[C@H](C(=O)Nc1snnc1-c1ccccc1)C(C)(C)C)C1CCCCC1 [Compound 1] | 283 nM and 165 nM | 44 nM and 26 nM | 468 nM and 225 nM | 101 nM and 49 nM | 9940 nM and 14800 nM | 1770 nM and 2630 nM | 189 nM and 181 nM | 43 nM and 41 nM
CN[C@@H](C)C(=O)N[C@H](C(=O)N[C@H](C(=O)NCC(c1ccccc1)c1ccccc1)C(C)(C)O)C(C)C [Compound 12] | 6880 nM | 1060 nM | 19100 nM | 4130 nM | > 200000 nM | > 35000 nM | 2540 nM | 579 nM
